Target: CDK2 (either cyclin A or E-dependent) (Homo sapiens, UniProt P24941)
Assay: biochemical
Description: BACULOVIRUS CONSTRUCTIONS: Cyclins A and E were cloned into pFASTBAC (Invitrogen) by PCR, with the addition of a GluTAG sequence (EYMPME) at the amino-terminal end to allow purification on anti-GluTAG affinity columns. […] CDK2 was also cloned into pFASTBAC by PCR, with the addition of a haemaglutinin epitope tag at the carboxy-terminal end ([…]).
ENZYME PRODUCTION: Recombinant baculoviruses expressing cyclins A, E and CDK2 were infected into SF9 cells at a multiplicity of infection (MOI) of 5, for 48 hrs. Cells were harvested by centrifugation at 1000 RPM for 10 minutes. Cyclin-containing (E or A) pellets were combined with CDK2 containing cell pellets and lysed on ice for 30 minutes in five times the pellet volume of lysis buffer containing 50 mM Tris pH 8.0, 0.5% NP40, 1 mM DTT and protease/phosphatase inhibitors (Roche Diagnostics GmbH, Mannheim, Germany). Mixtures were stirred for 30-60 minutes to promote cyclin-CDK2 complex formation. Mixed lysates were then spun down at 15000 RPM for 10 minutes and the supernatant retained. 5 ml of anti-GluTAG beads (for one liter of SF9 cells) were then used to capture cyclin-CDK2 complexes. Bound beads were washed three times in lysis buffer. Proteins were competitively eluted with lysis buffer containing 100-200 ug/mL of the GluTAG peptide. Eluate was dialyzed overnight in 2 liters of kinase buffer containing 50 mM Tris pH 8.0, 1 mM DTT, 10 mM MgCl2, 100 uM sodium orthovanadate and 20% glycerol. Enzyme was stored in aliquots at −70° C.
IN VITRO KINASE ASSAY: CDK2 kinase assays (either cyclin A or E-dependent) were performed in low protein binding 96-well plates (Corning Inc, Corning, N.Y.). Enzyme was diluted to a final concentration of 50 μg/ml in kinase buffer containing 50 mM Tris pH 8.0, 10 mM MgCl2, 1 mM DTT, and 0.1 mM sodium orthovanadate. The substrate used in these reactions was a biotinylated peptide derived from Histone H1 (from Amersham, UK). The substrate was thawed on ice and diluted to 2 μM in kinase buffer. Compounds were diluted in 10% DMSO to desirable concentrations. For each kinase reaction, 20 μl of the 50 μg/ml enzyme solution (1 μg of enzyme) and 20 μl of the […] substrate solution were mixed, then combined with 10 μl of diluted compound in each well for testing. […] The reaction was allowed to run for 1 hour at room temperature. The reaction was stopped by adding 200 μl of stop buffer containing 0.1% Triton X-100, 1 mM ATP, 5 mM EDTA, and 5 mg/ml streptavidine coated SPA beads (from Amersham, UK) for 15 minutes. The SPA beads were then captured onto a 96-well GF/B filter plate (Packard/Perkin Elmer Life Sciences) using a Filtermate universal harvester (Packard/Perkin Elmer Life Sciences.). Non-specific signals were eliminated by washing the beads twice with 2M NaCl then twice with 2 M NaCl with 1% phosphoric acid. The radioactive signal was then measured using a TopCount 96 well liquid scintillation counter (from Packard/Perkin Elmer Life Sciences).
IC50 DETERMINATION: Dose-response curves were plotted from inhibition data generated, each in duplicate, from 8 point serial dilutions of inhibitory compounds. Concentration of compound was plotted against % kinase activity, calculated by CPM of treated samples divided by CPM of untreated samples. To generate IC50 values, the dose-response curves were then fitted to a standard sigmoidal curve and IC50 values were derived by nonlinear regression analysis. These kinase activities were generated by using cyclin A or cyclin E using the above-described assay.

Row | Structure (SMILES) | IC50 [nM]
1 | Nc1cc(C2CCCNC2)nc2c(-c3ccc(CO)cc3)cnn12 (stereo not shown) | 1400
2 | Nc1cc(C2CCCNC2)nc2c(-c3cncs3)cnn12 (stereo not shown) | 210
3 | CC(C)Cc1ncc(-c2cnn3c(N)cc(C4CCCNC4)nc23)s1 (stereo not shown) | 1300
4 | Nc1cc(C2CCCNC2)nc2c(-c3ncon3)cnn12 (stereo not shown) | 2500
5 | N#CCc1ccc(-c2cnn3c(N)cc(C4CCCNC4)nc23)cc1 (stereo not shown) | 12000
6 | Nc1cc(C2CCCNC2)nc2c(-c3cscn3)cnn12 (stereo not shown) | 10000
7 | Nc1c(Br)c(C2CCCNC2)nc2c(-c3ccc4c(c3)OCO4)cnn12 (stereo not shown) | 570
8 | N#Cc1ccc(-c2cnn3c(N)c(Br)c(C4CCCNC4)nc23)cc1 (stereo not shown) | 240
9 | Nc1c(Br)c(C2CCCNC2)nc2c(-c3cncs3)cnn12 (stereo not shown) | 96
10 | Nc1c(Br)c(C2CCCNC2)nc2c(-c3cscn3)cnn12 (stereo not shown) | 5800
11 | Cn1cc(-c2cnn3c(N)c(Br)c(N4CC[C@H](N)C4)nc23)cn1 | 1200
12 | Nc1c(Br)c(C2CCCNC2)nc2c(-c3cnccn3)cnn12 (stereo not shown) | 4700
13 | Cn1cc(-c2cnn3c(NC4CCCC4)cc(C4CCCNC4)nc23)cn1 (stereo not shown) | 25000
14 | Cn1cc(-c2cnn3c(NCc4ccccc4)cc(C4CCCNC4)nc23)cn1 (stereo not shown) | 31000
15 | CCNc1c(Br)c(C2CCCNC2)nc2c(-c3cnn(C)c3)cnn12 (stereo not shown) | 5700
16 | Nc1cc(C2CCCNC2)nc2c(-c3cnoc3)cnn12 (stereo not shown) | 790
17 | Nc1cc(C2CCCNC2)nc2c(-c3cnn(CCO)c3)cnn12 (stereo not shown) | 4300
18 | CC(C)n1cc(-c2cnn3c(N)cc(C4CCCNC4)nc23)cn1 (stereo not shown) | 8300
19 | Cn1cc(-c2cnn3c(N)c(I)c(C4CCCNC4)nc23)cn1 (stereo not shown) | 20
20 | N#Cc1ccc(-c2cnn3c(N)cc(C4CCCNC4)nc23)cn1 (stereo not shown) | 2300
21 | N#Cc1ccc(-c2cnn3c(N)c(Br)c(C4CCCNC4)nc23)cn1 (stereo not shown) | 880
22 | Nc1c(Br)c(C2CCCNC2)nc2c(-c3cnoc3)cnn12 (stereo not shown) | 160
23 | Nc1c(Br)c(C2CCCNC2)nc2c(-c3cnn(CCO)c3)cnn12 (stereo not shown) | 200
24 | N#Cc1cncc(-c2cnn3c(N)c(Br)c(C4CCCNC4)nc23)c1 (stereo not shown) | 5800
25 | CCn1cc(-c2cnn3c(N)c(Br)c(C4CCCNC4)nc23)cn1 (stereo not shown) | 410

Row | Structure (SMILES) | IC50 [nM]
26 | CN(C)C(=O)Cn1cc(-c2cnn3c(N)c(Br)c(C4CCCNC4)nc23)cn1 (stereo not shown) | 1400
27 | Cn1cc(-c2cnn3c(N)c(Br)c(C4CCCN(CCO)C4)nc23)cn1 (stereo not shown) | 1750
28 | N#Cc1cc(-c2cnn3c(N)c(Br)c(C4CCCNC4)nc23)co1 (stereo not shown) | 140
29 | N#Cc1cc(-c2cnn3c(N)c(Cl)c(C4CCCNC4)nc23)co1 (stereo not shown) | 210
30 | Nc1cc(C2CCCNC2)nc2c(-c3coc(C=NO)c3)cnn12 (stereo not shown) | 40
31 | Nc1cc(C2CCCNC2)nc2c(-c3cn[nH]c3)cnn12 (stereo not shown) | 1500
32 | COC(=O)[C@@H]1CC[C@H](c2cc(N)n3ncc(-c4cnn(C)c4)c3n2)CN1 | 14000
33 | Cn1cc(-c2cnn3c(N)c(Br)c(CC4CNCCO4)nc23)cn1 (stereo not shown) | 6100
34 | Cn1cc(-c2cnn3c(N)c(Br)c(CC4CNCCN4)nc23)cn1 (stereo not shown) | 5700
35 | Cn1cc(-c2cnn3c(N)cc(C4(F)CCCNC4)nc23)cn1 (stereo not shown) | 6000
36 | Cn1cc(-c2cnn3c(N)c(Br)c(C4CCCCN4)nc23)cn1 (stereo not shown) | 28000
37 | Cn1cc(-c2cnn3c(N)c(Br)c(C4CNCCNC4)nc23)cn1 | 720
38 | Cn1cc(-c2cnn3c(N)cc([C@H]4CC[C@@H](CO)NC4)nc23)cn1 | 12000
39 | C/C(=N\O)[C@@H]1CC[C@H](c2nc3c(-c4cnn(C)c4)cnn3c(N)c2Br)CN1 | 520
40 | Cn1cc(-c2cnn3c(N)c(Br)c([C@H]4CCC[C@@H](N)C4)nc23)cn1 | 440
41 | Cn1cc(-c2cnn3c(N)cc([C@@H]4CC[C@@H](N)C4)nc23)cn1 | 5600
42 | Cn1cc(-c2cnn3c(N)cc([C@@H]4CC[C@H](N)C4)nc23)cn1 | 3700
43 | Cn1cc(-c2cnn3c(N)c(Br)c([C@@H]4CC[C@@H](N)C4)nc23)cn1 | 120
44 | Cn1cc(-c2cnn3c(N)c(Br)c([C@@H]4CC[C@H](N)C4)nc23)cn1 | 240
45 | CC(N)CCc1nc2c(-c3cnn(C)c3)cnn2c(N)c1Br (stereo not shown) | 1200
46 | CC(C)N1CCNCC(c2nc3c(-c4cnn(C)c4)cnn3c(N)c2Br)C1 (stereo not shown) | 2600
47 | CC(=O)N1CCNCC(c2nc3c(-c4cnn(C)c4)cnn3c(N)c2Br)C1 (stereo not shown) | 2600
48 | Cn1cc(-c2cnn3c(N)c(Br)c(C4CNCCN(S(C)(=O)=O)C4)nc23)cn1 (stereo not shown) | 3100
49 | Cn1cc(-c2cnn3c(N)c(Br)c(CCNCc4ccccc4)nc23)cn1 | 3700
